The values that follow come from patent US20260200928A1, “THERAPEUTIC COMPOUNDS” (Sanofi, priority 2022, published 2026).

Each structure is given as a SMILES string.

The assay has as its target T1, human IL-17A (Homo sapiens, UniProt Q16552).
T1 construct: purchased R&D Systems 7955-IL/CF
T1 sequence (Q16552 24-155): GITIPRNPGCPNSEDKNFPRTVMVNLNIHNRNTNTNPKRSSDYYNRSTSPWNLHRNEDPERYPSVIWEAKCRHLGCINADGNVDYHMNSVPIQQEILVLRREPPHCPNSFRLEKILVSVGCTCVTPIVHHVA
Description: IL-17A AlphaLISA competition assay (block of IL-17A binding to its receptor IL-17RA). The note with it: mean IC50 (n≥2), block of IL-17A binding to IL-17RA. The procedure:
The ability of the compounds to block binding of IL-17A to its receptor, IL-17RA, was analysed in a competition assay using AlphaLISA technology (Perkin Elmer). The assay is a bead based AlphaLISA where the IL-17RA is captured on the acceptor bead via an Fc tag and IL-17A is captured on the streptavidin donor bead via a biotinylated anti-IL17A antibody.
Assay buffer was prepared by adding 0.05% Tween-20 (v/v) and 0.1% BSA to Phosphate Buffered Saline (PBS). The assay was carried out in 384-well white low volume plates (Perkin Elmer #6008359). 10 μL of a 7.5 nM stock of human recombinant IL-17A (R&D Systems 7955-IL/CF) diluted in assay buffer was dispensed into the assay plate and compounds or DMSO vehicle control were added in a volume of 75 nL using an acoustic dispenser (Beckman). The compounds were pre-incubated with the IL-17A for 30 min at room temperature prior to addition of 5 μL of a 5 nM stock of human recombinant IL-17RA/Fc chimera (R&D Systems 177-IR-100) diluted in assay buffer. The IL-17A was incubated with the receptor for a further 90 minutes at room temperature before addition of 5 μL of a mixture of anti-human Fc IgG acceptor beads (75 μg/mL, Perkin Elmer AL1030) and anti-IL-17A biotin conjugated antibody (5 nM, Abcam, #ab155575) in assay buffer. After a further 30 min incubation at room temperature, 5 μL of streptavidin donor beads (75 μg/mL, Perkin Elmer 6760002S) were added and the plate was incubated for 3 h in the dark.
The AlphaLisa signal was measured using the PheraSTAR plate reader (BMG). Data were analysed using GeneData Screener and fitted to a 4-parameter logistic equation. The IC50 values were calculated using the DMSO vehicle as the negative control and a high concentration (4 μM) of a reference IL-17A inhibitor as the positive control. All compounds were analysed at least in duplicate (n≥2).
For orientation: Alpha assays give light when donor and acceptor beads are brought close together.

As usually defined, the IC50 is the concentration needed to halve the response being measured. The compound `COCC(c1ccnc(NC(=O)[C@@H](NC(=O)c2conc2C(C)C)[C@H]2CC[C@H](C)CC2)c1)N1C[C@@H](C(F)(F)F)NC1=O` (single isomer, unassigned) [Example 89] registered an IC50 of 11 nM.

With `COCC(c1ccnc(NC(=O)[C@@H](NC(=O)c2ncsc2C)[C@H]2CC[C@H](C)CC2)c1)N1C[C@@H](C(F)(F)F)NC1=O` (single isomer, unassigned) [Example 91], the IC50 is 119 nM.

With `COCC(c1ccnc(NC(=O)[C@@H](NC(=O)c2ncsc2C#N)[C@H]2CC[C@H](C)CC2)c1)N1C[C@@H](C(F)(F)F)NC1=O` (single isomer, unassigned) [Example 92], the IC50 is 539 nM.

The compound `COCC(c1ccnc(NC(=O)[C@@H](NC(=O)c2nnnn2C)[C@H]2CC[C@H](C)CC2)c1)N1C[C@@H](C(F)(F)F)NC1=O` (single isomer, unassigned) [Example 93] gave an IC50 of 341 nM.

Consider `COCC(c1ccnc(NC(=O)[C@@H](NC(=O)c2nc(Br)ccc2C)[C@H]2CC[C@H](C)CC2)c1)N1C[C@@H](C(F)(F)F)NC1=O` (single isomer, unassigned) [Example 94], for which the IC50 worked out at 4860 nM.

In the case of `COCC(c1ccnc(NC(=O)[C@@H](NC(=O)c2nc(Cl)ncc2C)[C@H]2CC[C@H](C)CC2)c1)N1C[C@@H](C(F)(F)F)NC1=O` (single isomer, unassigned) [Example 95], the IC50 amounted to 5490 nM.

In turn, `COCC(c1ccnc(NC(=O)[C@@H](NC(=O)c2nccn2C)[C@H]2CC[C@H](C)CC2)c1)N1C[C@@H](C(F)(F)F)NC1=O` (single isomer, unassigned) [Example 112] yielded a half-inhibitory concentration (IC50) of 381 nM.

`COCC(c1ccnc(NC(=O)[C@@H](NC(=O)Cc2cc(C)[nH]n2)[C@H]2CC[C@H](C)CC2)c1)N1C[C@@H](C(F)(F)F)NC1=O` (single isomer, unassigned) [Example 114] registered an IC50 of 82 nM.

The compound `COCC(c1ccnc(NC(=O)[C@@H](NC(=O)c2nccn2C(C)C)[C@H]2CC[C@H](C)CC2)c1)N1C[C@@H](C(F)(F)F)NC1=O` (single isomer, unassigned) [Example 115] returned an IC50 of 77 nM.

In the case of `COCC(c1ccnc(NC(=O)[C@@H](NC(=O)c2nocc2C)[C@H]2CC[C@H](C)CC2)c1)N1C[C@@H](C(F)(F)F)NC1=O` (single isomer, unassigned) [Example 120], the IC50 is 18 nM.

`COCC(c1ccnc(NC(=O)[C@@H](NC(=O)c2nocc2C2CC2)[C@H]2CC[C@H](C)CC2)c1)N1C[C@@H](C(F)(F)F)NC1=O` (single isomer, unassigned) [Example 121] displayed an IC50 of 23 nM.

The compound `COCC(c1ccnc(NC(=O)[C@@H](NC(=O)c2ocnc2C)[C@H]2CC[C@H](C)CC2)c1)N1C[C@@H](C(F)(F)F)NC1=O` (single isomer, unassigned) [Example 122] gave an IC50 of 82 nM.

Turning to `COCC(c1ccnc(NC(=O)[C@@H](NC(=O)Cc2cc(C)no2)[C@H]2CC[C@H](C)CC2)c1)N1C[C@@H](C(F)(F)F)NC1=O` (single isomer, unassigned) [Example 123], the IC50 came to 65 nM.

Consider `CCn1nccc1C(=O)N[C@H](C(=O)Nc1cc(C(COC)N2C[C@@H](C(F)(F)F)NC2=O)ccn1)[C@H]1CC[C@H](C)CC1` (single isomer, unassigned) [Example 124], for which the IC50 was 20 nM.

Take `CCc1nocc1C(=O)N[C@H](C(=O)Nc1cc(C(COC)N2C[C@@H](C(F)(F)F)NC2=O)ccn1)[C@H]1CC[C@H](C)CC1` (single isomer, unassigned) [Example 125]: the IC50 was 13 nM.

Turning to `COCC(c1ccnc(NC(=O)[C@@H](NC(=O)c2conc2C2CC2)[C@H]2CC[C@H](C)CC2)c1)N1C[C@@H](C(F)(F)F)NC1=O` (single isomer, unassigned) [Example 126], the IC50 was found to be 21 nM.

The compound `COCC(NC(=O)CCC(F)(F)F)c1ccnc(NC(=O)[C@@H](NC(=O)OC(C)(C)C)C2CCC(F)(F)CC2)c1` (single isomer, unassigned) [Example 132] had an IC50 of 7700 nM.

In the case of `COCC(NC(=O)CCC(F)(F)F)c1ccnc(NC(=O)[C@@H](NC(=O)c2nonc2C2CC2)C2CCC(F)(F)CC2)c1` (single isomer, unassigned) [Example 133], the IC50 worked out at 73 nM.

`COCC(NC(=O)CCC(F)(F)F)c1ccnc(NC(=O)[C@@H](NC(=O)c2nonc2C2CC2)C2CCC(F)(F)CC2)c1` (single isomer, unassigned) [Example 134] gave an IC50 of 1250 nM.

Compound `COCC(NC(=O)CCC(F)(F)F)c1ccnc(NC(=O)[C@@H](NC(=O)c2ccnn2C)C2CCC(F)(F)CC2)c1` (single isomer, unassigned) [Example 136] yielded an IC50 of 252 nM.

Compound `COCC(NC(=O)CCC(F)(F)F)c1ccnc(NC(=O)[C@@H](NC(=O)c2ccnn2C(C)C)C2CCC(F)(F)CC2)c1` (single isomer, unassigned) [Example 137] displayed an IC50 of 197 nM.

In turn, `CCn1nccc1C(=O)N[C@H](C(=O)Nc1cc(C(COC)NC(=O)CCC(F)(F)F)ccn1)C1CCC(F)(F)CC1` (single isomer, unassigned) [Example 138] yielded an IC50 of 164 nM.

For `COCC(NC(=O)CCC(F)(F)F)c1ccnc(NC(=O)[C@@H](NC(=O)c2ccnn2C2CC2)C2CCC(F)(F)CC2)c1` (single isomer, unassigned) [Example 139], the IC50 was found to be 265 nM.

Take `COCC(NC(=O)CCC(F)(F)F)c1ccnc(NC(=O)[C@@H](NC(=O)c2nccn2C)C2CCC(F)(F)CC2)c1` (single isomer, unassigned) [Example 140]: the IC50 is 7370 nM.

`COCC(NC(=O)CCC(F)(F)F)c1ccnc(NC(=O)[C@@H](NC(=O)c2nccn2C(C)C)C2CCC(F)(F)CC2)c1` (single isomer, unassigned) [Example 141] came in with an IC50 of 646 nM.

The compound `COCC(NC(=O)CCC(F)(F)F)c1ccnc(NC(=O)[C@@H](NC(=O)c2ccnn2CC2CC2)C2CCC(F)(F)CC2)c1` (single isomer, unassigned) [Example 142] gave an IC50 of 203 nM.

For `COCC(NC(=O)CCC(F)(F)F)c1ccnc(NC(=O)[C@@H](NC(=O)c2ccnn2C)C2CCC(F)(F)CC2)c1` (single isomer, unassigned) [Example 143], the IC50 turned out to be 3230 nM.

For `CCn1nccc1C(=O)N[C@H](C(=O)Nc1cc(C(COC)NC(=O)CCC(F)(F)F)ccn1)C1CCC(F)(F)CC1` (single isomer, unassigned) [Example 144], the IC50 stood at 1830 nM.

The compound `COCC(NC(=O)CCC(F)(F)F)c1ccnc(NC(=O)[C@@H](NC(=O)c2ccnn2C(C)C)C2CCC(F)(F)CC2)c1` (single isomer, unassigned) [Example 145] showed an IC50 of 1360 nM.

`COCC(NC(=O)CCC(F)(F)F)c1ccnc(NC(=O)[C@@H](NC(=O)c2ccnn2C2CC2)C2CCC(F)(F)CC2)c1` (single isomer, unassigned) [Example 146] registered an IC50 of 4450 nM.

`COCC(NC(=O)CCC(F)(F)F)c1ccnc(NC(=O)[C@@H](NC(=O)c2ccnn2CC2CC2)C2CCC(F)(F)CC2)c1` (single isomer, unassigned) [Example 147] returned an IC50 of 828 nM.

In the case of `COCC(NC(=O)CCC(F)(F)F)c1ccnc(NC(=O)[C@@H](NC(=O)c2nccn2C(C)C)C2CCC(F)(F)CC2)c1` (single isomer, unassigned) [Example 148], the IC50 was determined as 8280 nM.
